What follows are compounds tested against human orexin-2 receptor (Homo sapiens (Human), UniProt O43614) (assay: FLIPR Ca2+ Flux Assay, orexin-2 receptor). Conditions: CHO cells expressing the human orexin-2 receptor; agonist 70 pM Ala-6,12 orexin-A; read-out: hOX2R FLIPR IC50.
human orexin-2 receptor, sequence (O43614 whole entry): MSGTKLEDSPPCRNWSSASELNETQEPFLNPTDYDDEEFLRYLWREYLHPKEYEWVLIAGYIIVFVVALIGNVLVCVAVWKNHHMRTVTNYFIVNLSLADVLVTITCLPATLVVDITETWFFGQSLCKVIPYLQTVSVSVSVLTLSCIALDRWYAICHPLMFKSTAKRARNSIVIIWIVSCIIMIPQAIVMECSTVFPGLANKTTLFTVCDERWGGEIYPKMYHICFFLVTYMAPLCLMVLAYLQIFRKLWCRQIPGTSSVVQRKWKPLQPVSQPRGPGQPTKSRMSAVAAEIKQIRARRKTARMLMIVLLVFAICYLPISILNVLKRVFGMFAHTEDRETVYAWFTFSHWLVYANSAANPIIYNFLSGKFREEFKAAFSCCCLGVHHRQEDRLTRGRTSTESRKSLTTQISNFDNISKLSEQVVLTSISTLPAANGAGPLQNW
Type: cell-based
Method: In a typical experiment the OX1 and OX2 receptor antagonistic activity of the compounds of the present invention was determined in accordance with the following experimental method. For intracellular calcium measurements, Chinese hamster ovary (CHO) cells expressing the rat orexin-1 receptor or the human orexin-2 receptor, are grown in Iscove's modified DMEM containing 2 mM L-glutamine, […], 1% hypoxanthine-thymidine supplement, 100 U/ml penicillin, 100 μg/ml streptomycin and 10% heat-inactivated fetal calf serum (FCS). The cells are seeded at 20,000 cells/well into Becton-Dickinson black 384-well clear bottom sterile plates coated with poly-D-lysine. All reagents were from GIBCO-Invitrogen Corp. The seeded plates are incubated overnight at 37° C. and 5% CO2. Ala-6,12 human orexin-A as the agonist is prepared as a 1 mM stock solution in 1% bovine serum albumin (BSA) and diluted in assay buffer (HBSS containing 20 mM HEPES, 0.1% BSA and 2.5 mM probenecid, pH7.4) for use in the assay at a final concentration of 70 pM. Test compounds are prepared as 10 mM stock solution in DMSO, then diluted in 384-well plates, first in DMSO, then assay buffer. On the day of the assay, cells are washed 3 times with 100 μl assay buffer and then incubated for 60 min (37° C., 5% CO2) in 60 μl assay buffer containing 1 μM Fluo-4AM ester, 0.02% pluronic acid, and 1% BSA. The dye loading solution is then aspirated and cells are washed 3 times with 100 μl assay buffer. 30 μl of that same buffer is left in each well. Within the Fluorescent Imaging Plate Reader (FLIPR, Molecular Devices), test compounds are added to the plate in a volume of 25 μl, incubated for 5 min and finally 25 μl of agonist is added. Fluorescence is measured for each well at 1 second intervals for 5 minutes and the height of each fluorescence peak is compared to the height of the fluorescence peak induced by 70 pM Ala-6,12 orexin-A with buffer in place of antagonist. For each antagonist, IC50 value (the concentration of compound needed to inhibit 50% of the agonist response) is determined. Alternatively, compound potency can be assessed by a radioligand binding assay (described in Bergman et. al. Bioorg. Med. Chem. Lett. 2008, 18, 1425-1430) in which the inhibition constant (Ki) is determined in membranes prepared from CHO cells expressing either the OX1 or OX2 receptor. The intrinsic orexin receptor antagonist activity of a compound which may be used in the present invention may be determined by these assays.
Compound `CCN(CCN(C)c1cc(C#N)ccn1)C(=O)c1ccccc1-n1cnnn1` [Example F-25, N-{2-[(4-cyanopyridin-2-yl)(methyl)amino]ethyl}-N-ethyl-2-(1H-tetrazol-1-yl)benzamide] has an IC50 of 4.39 µM.
With `CCN(CCN(C)c1cc(C#N)ccn1)C(=O)c1ccccc1C1(C#N)CC1` [Example F-26, 2-(1-cyanocyclopropyl)-N-{2-[(4-cyanopyridin-2-yl)(methyl)amino]ethyl}-N-ethylbenzamide] the IC50 was 0.0189 µM.
`CCN(CCN(C)c1cc(C#N)ccn1)C(=O)c1ccccc1-c1nc(C)no1` [Example F-27, N-{2-[(4-cyanopyridin-2-yl)(methyl)amino]ethyl}-N-ethyl-2-(3-methyl-1,2,4-oxadiazol-5-yl)benzamide] gave an IC50 of 0.024 µM.
For `CCN(CCN(C)c1cc(C#N)ccn1)C(=O)c1ccccc1-n1ccnn1` [Example F-28, N-{2-[(4-cyanopyridin-2-yl)(methyl)amino]ethyl}-N-ethyl-2-(1H-1,2,3-triazol-1-yl)benzamide], the IC50 was 0.461 µM.
Work on `CCOc1cccc(C(=O)N(CC)CCN(C)c2cc(C#N)ccn2)c1OC` [Example F-29, N-{2-[(4-cyanopyridin-2-yl)(methyl)amino]ethyl}-3-ethoxy-N-ethyl-2-methoxybenzamide] yielded an IC50 of 10 µM.
With `CCN(CCN(C)c1cc(C#N)ccn1)C(=O)c1cc(F)ccc1-n1nccn1` [Example F-30, N-{2-[(4-cyanopyridin-2-yl)(methyl)amino]ethyl}-N-ethyl-5-fluoro-2-(2H-1,2,3-triazol-2-yl)benzamide] the IC50 was 0.0244 µM.
With `CCN(CCN(C)c1cc(C#N)ccn1)C(=O)c1ccc(OCC(F)(F)F)nc1` [Example F-31, N-{2-[(4-cyanopyridin-2-yl)(methyl)amino]ethyl}-N-ethyl-6-(2,2,2-trifluoroethoxy)pyridine-3-carboxamide] the IC50 was 10 µM.
With `CN(CCN(C)c1cc(C#N)ccn1)C(=O)c1ccccc1-n1nccn1` [Example G-1, N-(2-((4-cyanopyridin-2-yl)(methyl)amino)ethyl)-N-methyl-2-(2H-1,2,3-triazol-2-yl)benzamide] the IC50 was 0.088 µM.
Work on `CCCN(CCN(C)c1cc(C#N)ccn1)C(=O)c1ccccc1-n1nccn1` [Example G-4, N-(2-((4-cyanopyridin-2-yl)(methyl)amino)ethyl)-N-propyl-2-(2H-1,2,3-triazol-2-yl)benzamide] yielded an IC50 of 0.0121 µM.
Compound `CCCCN(CCN(C)c1cc(C#N)ccn1)C(=O)c1ccccc1-n1nccn1` [Example G-5, N-butyl-N-(2-((4-cyanopyridin-2-yl)(methyl)amino)ethyl)-2-(2H-1,2,3-triazol-2-yl)benzamide] has an IC50 of 0.0198 µM.
Compound `CN(CCN(Cc1ccccc1)C(=O)c1ccccc1-n1nccn1)c1cc(C#N)ccn1` [Example G-6, N-benzyl-N-(2-((4-cyanopyridin-2-yl)(methyl)amino)ethyl)-2-(2H-1,2,3-triazol-2-yl)benzamide] has an IC50 of 0.112 µM.
With `CN(CCN(CC1CC1)C(=O)c1ccccc1-n1nccn1)c1cc(C#N)ccn1` [Example G-7, N-(2-((4-cyanopyridin-2-yl)(methyl)amino)ethyl)-N-(cycloproplmethyl)-2-(2H-1,2,3-triazol-2-yl)benzamide] the IC50 was 0.0358 µM.
With `CC(C)CN(CCN(C)c1cc(C#N)ccn1)C(=O)c1ccccc1-n1nccn1` [Example G-8, N-(2-((4-cyanopyridin-2-yl)(methyl)amino)ethyl)-N-isobutyl-2-(2H-1,2,3-triazol-2-yl)benzamide] the IC50 was 0.0122 µM.
For `CC(C)N(CCN(C)c1cc(C#N)ccn1)C(=O)c1ccccc1-n1nccn1` [Example G-9, N-(2-((4-cyanopyridin-2-yl)(methyl)amino)ethyl)-N-isopropyl-2-(2H-1,2,3-triazol-2-yl)benzamide], the IC50 was 0.0765 µM.
`CCN(CCN(C)c1nccc(C(C)(C)O)n1)C(=O)c1ccccc1-n1nccn1` [Example H-1, N-ethyl-N-(2-((4-(2-hydroxypropan-2-yl)pyrimidin-2-yl)(methy)amino)ethyl)-2-(2H-1,2,3-triazol-2-yl)benzamide] gave an IC50 of 0.011 µM.
With `CCN(CCN(C)c1nccc(C(C)(C)O)n1)C(=O)c1cccnc1OC(C)C` [Example H-14, N-ethyl-N-(2-((4-(2-hydroxypropan-2-yl)pyrimidin-2-yl)(methyl)amino)ethyl)-2-isopropoxynicotinamide] the IC50 was 0.0654 µM.
`CCOc1ncccc1C(=O)N(CC)CCN(C)c1nccc(C(C)(C)O)n1` [Example H-15, 2-ethoxy-N-ethyl-N-(2-((4-(2-hydroxypropan-2-yl)pyrimidin-2-yl)(methyl)amino)ethyl) nicotinamide] gave an IC50 of 0.0773 µM.
`CCN(CCN(C)c1nccc(C(C)(C)O)n1)C(=O)c1cccnc1OCC(F)F` [Example H-16, 2-(2,2-difluoroethoxy)-N-ethyl-N-(2-((4-(2-hydroxypropan-2-yl)pyrimidin-2-yl)(methyl)amino)ethyl) nicotinamide] gave an IC50 of 0.0242 µM.
`CCN(CCN(C)c1nccc(C(C)(C)O)n1)C(=O)c1cccnc1OCC(F)(F)F` [Example H-17] was tested, and the IC50 was 0.0217 µM.
Work on `CCN(CCN(C)c1nccc(C(C)(C)O)n1)C(=O)c1ccccc1OC(F)F` [Example H-18, 2-(difluoromethoxy)-N-ethyl-N-(2-((4-(2-hydroxypropan-2-yl)pyrimidin-2-yl)(methyl)amino)ethyl) benzamide] yielded an IC50 of 0.0493 µM.
Work on `CCCc1ccccc1C(=O)N(CC)CCN(C)c1nccc(C(C)(C)O)n1` [Example H-19, N-ethyl-N-(2-((4-(2-hydroxypropan-2-yl)pyrimidin-2-yl)(methyl)amino)ethyl)-2-propylbenzamide] yielded an IC50 of 0.0131 µM.
In the case of `CCN(CCN(C)c1nccc(C(C)(C)O)n1)C(=O)c1ccccc1OCC(F)(F)F` [Example H-20, N-ethyl-N-(2-((4-(2-hydroxypropan-2-yl)pyrimidin-2-yl)(methyl)amino)ethyl)-2-(2,2,2-trifluoroethoxy)benzamide], the IC50 is reported as 0.032 µM.
`CCN(CCN(C)c1nccc(C(C)(C)O)n1)C(=O)c1ccccc1CC(F)(F)F` [Example H-21, N-ethyl-N-(2-((4-(2-hydroxypropan-2-yl)pyrimidin-2-yl)(methyl)amino)ethyl)-2-(2,2,2-trifluoroethyl)benzamide] showed an IC50 of 0.018 µM.
Work on `CCN(CCN(C)c1nccc(C(C)(C)O)n1)C(=O)c1ccccc1OCC(F)F` [Example H-22, 2-(2,2-difluoroethoxy)-N-ethyl-N-(2-((4-(2-hydroxypropan-2-yl)pyrimidin-2-yl)(methyl)amino)ethyl) benzamide] yielded an IC50 of 0.0177 µM.
In the case of `CCN(CCN(C)c1nccc(C(C)(C)O)n1)C(=O)c1cccnc1CC(F)(F)F` [Example H-23, N-ethyl-N-(2-((4-(2-hydroxypropan-2-yl)pyrimidin-2-yl)(methyl)amino)ethyl)-2-(2,2,2-trifluoroethyl)nicotinamide], the IC50 is reported as 0.179 µM.
With `CCN(CCN(C)c1nccc(C(C)(C)O)n1)C(=O)c1ccccc1CC(F)F` [Example H-24, 2-(2,2-difluoroethyl)-N-ethyl-N-(2-((4-(2-hydroxypropan-2-yl)pyrimidin-2-yl)(methyl)amino)ethyl) benzamide] the IC50 was 0.0206 µM.
`CCN(CCN(C)c1nccc(C(C)(C)O)n1)C(=O)c1ccccc1C1CC1` [Example H-25, 2-cyclopropyl-N-ethyl-N-(2-((4-(2-hydroxypropan-2-yl)pyrimidin-2-yl)(methyl)amino)ethyl) benzamide] gave an IC50 of 0.0091 µM.
For `CCN(CCN(C)c1nccc(C(C)(C)O)n1)C(=O)c1ccccc1C1CC1(F)F` (stereo not shown) [Example H-26, 2-(2,2-difluorocyclopropyl)-N-ethyl-N-(2-((4-(2-hydroxypropan-2-yl)pyrimidin-2-yl)(methyl)amino)ethyl) benzamide], the IC50 was 0.0169 µM.

Source: US10011595B2 (Merck Sharp & Dohme Corp., priority 2014, dated 2018)
